Measured values taken from ChEMBL document CHEMBL4422691, “Identification of C-6 as a New Site for Linker Conjugation to the Taccalonolide Microtubule Stabilizers” (J Nat Prod, 2019).
Activity calls are given as the source filed them. The calls are words filed in the database; no cut-off is given here.

Columns and labels:
Tubulin (Sus scrofa) [1] = target: T1, Tubulin (Sus scrofa) (UniProt P02554+P02550); experiment: Induction of porcine tubulin polymerization measured at 1 min interval for 1 hr; assay type: protein assay
T1 sequence (P02550 whole entry, looked up): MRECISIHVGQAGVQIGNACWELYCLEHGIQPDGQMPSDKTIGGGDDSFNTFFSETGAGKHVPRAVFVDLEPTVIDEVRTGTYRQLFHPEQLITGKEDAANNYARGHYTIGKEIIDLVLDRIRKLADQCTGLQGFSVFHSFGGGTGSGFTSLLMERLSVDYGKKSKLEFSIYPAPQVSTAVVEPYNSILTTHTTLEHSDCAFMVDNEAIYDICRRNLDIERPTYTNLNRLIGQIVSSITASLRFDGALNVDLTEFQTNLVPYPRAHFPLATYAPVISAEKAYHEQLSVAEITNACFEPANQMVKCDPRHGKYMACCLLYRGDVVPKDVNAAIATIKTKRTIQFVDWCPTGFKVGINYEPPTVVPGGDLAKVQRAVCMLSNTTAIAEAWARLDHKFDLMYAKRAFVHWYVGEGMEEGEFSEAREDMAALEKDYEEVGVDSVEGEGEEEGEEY
T1 sequence (P02554 whole entry, looked up): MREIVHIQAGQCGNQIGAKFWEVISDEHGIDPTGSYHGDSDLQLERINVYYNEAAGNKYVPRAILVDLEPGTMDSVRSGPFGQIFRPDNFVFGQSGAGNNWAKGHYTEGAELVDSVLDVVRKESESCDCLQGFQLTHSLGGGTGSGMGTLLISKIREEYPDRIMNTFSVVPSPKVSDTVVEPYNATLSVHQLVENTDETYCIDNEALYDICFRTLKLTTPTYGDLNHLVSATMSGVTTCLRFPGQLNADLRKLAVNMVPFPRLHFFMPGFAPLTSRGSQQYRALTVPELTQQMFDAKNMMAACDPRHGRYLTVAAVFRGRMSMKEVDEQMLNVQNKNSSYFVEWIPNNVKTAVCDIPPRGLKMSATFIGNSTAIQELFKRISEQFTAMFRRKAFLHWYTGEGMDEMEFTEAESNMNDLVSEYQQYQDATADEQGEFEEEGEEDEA

HeLa = experiment: Antiproliferative activity against human HeLa cells after 48 hrs by sulforhodamine B assay; assay type: functional, cell-based
Tubulin (Homo sapiens) [2] = target: T2, Tubulin (Homo sapiens) (UniProt P68371+Q9H4B7+P0DPH7+P68366+Q13509+Q71U36+P04350+Q3ZCM7+P07437+P68363+Q9BQE3+Q6PEY2+Q13885+Q9BVA1+Q9BUF5); experiment: Induction of microtubule stabilization in human HCC1937 cells assessed as co-localization of compound with microtubule at 5 uM after 24 hrs by fluorescence assay; assay type: cell-based
Tubulin (Homo sapiens) [3] = target: T2, Tubulin (Homo sapiens); experiment: Induction of microtubule stabilization in human HCC1937 cells at 5 uM after 6 hrs by live cell fluorescence imaging; assay type: cell-based
[4] = Stability of the compound in aqueous solution after 24 hrs; assay type: physicochemical; details: buffer
Tubulin (Sus scrofa) [5] = target: T1, Tubulin (Sus scrofa); experiment: Induction of porcine tubulin polymerization at 5 to 10 uM measured at 1 min interval for 1 hr; assay type: protein assay
Tubulin (Homo sapiens) [6] = target: T2, Tubulin (Homo sapiens); experiment: Induction of microtubule stabilization in human HCC1937 cells assessed as bundling of microtubules at 5 uM after 24 hrs by immunofluorescence assay; assay type: cell-based

In the case of `CC(=O)O[C@H]1[C@H]2[C@H]([C@@H]3[C@@H](O)[C@@H]4[C@H]([C@H](C)[C@@H]5O[C@@]56OC(=O)[C@@](C)(O)[C@]46C)[C@@]3(C)[C@H]1OC(C)=O)[C@@H](O)C(=O)[C@H]1C[C@@H]3O[C@@H]3[C@H](OC(C)=O)[C@]21C`, the Activity (Tubulin (Sus scrofa) [1]) is reported as “Dose-dependent effect”.

With `CC(=O)O[C@H]1[C@H]2[C@@H]([C@@H](O)[C@@H](OC(=O)CCCCn3cc(COc4ccc5c(c4)Oc4cc(O)ccc4C54OC(=O)c5ccccc54)nn3)[C@H]3C[C@@H]4O[C@@H]4[C@H](OC(C)=O)[C@]23C)[C@@H]2[C@@H](O)[C@@H]3[C@H]([C@H](C)[C@H]4O[C@]45OC(=O)[C@@](C)(O)[C@]35C)[C@@]2(C)[C@H]1OC(C)=O` (some centres not stated) the IC50 (HeLa) was 2500 nM, the Activity (Tubulin (Homo sapiens) [2]) was “Active” and the Activity (Tubulin (Homo sapiens) [3]) was “Active”. The Stability [4] was “Stable”, the Activity (Tubulin (Sus scrofa) [5]) was “Active” and the Activity (Tubulin (Homo sapiens) [6]) was “Active”.
